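Exposure lasted 48 hours, with cells grown in 96-well plates and compounds tested at five concentrations. GI50 marks 50% less growth. TGI denotes the concentration required for complete inhibition of growth.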
Key:
Assay in all cases: NCI tumour cell line growth inhibition, 48 h
[1] = system: NCI-H522 lung
[2] = system: UACC-62 melanoma
[3] = system: OVCAR-8 ovarian
[4] = system: A498 renal
[5] = system: HCT-15 colon
[6] = system: RPMI-8226 leukemia
[7] = system: SK-MEL-28 melanoma
[8] = system: 786-0 renal
[9] = system: SNB-75 CNS
[10] = system: SK-MEL-5 melanoma
[11] = system: OVCAR-3 ovarian
[12] = system: SNB-19 CNS
[13] = system: RXF 393 renal
[14] = system: HCC-2998 colon
[15] = system: NCI/ADR-RES ovarian
[16] = system: MOLT-4 leukemia
[17] = system: SK-OV-3 ovarian
[18] = system: COLO 205 colon
[19] = system: UACC-257 melanoma
[20] = system: MDA-MB-435
[21] = system: DU-145 prostate
[22] = system: K-562 leukemia
[23] = system: BT-549 breast
[24] = system: SW-620 colon
[25] = system: ACHN renal
[26] = system: MCF7 breast
[27] = system: NCI-H460 lung
[28] = system: SF-268 CNS
[29] = system: IGROV1 ovarian
[30] = system: HL-60(TB) leukemia
[31] = system: T-47D breast
[32] = system: HCT-116 colon
[33] = system: KM12 colon
[34] = system: U251 CNS
[35] = system: UO-31 renal
[36] = system: M14 melanoma
[37] = system: HOP-92 NSCLC
[38] = system: NCI-H226 lung
[39] = system: SR leukemia
[40] = system: CCRF-CEM leukemia
[41] = system: HOP-62 NSCLC
[42] = system: PC-3 prostate
[43] = system: TK-10 renal
[44] = system: OVCAR-4 ovarian
[45] = system: OVCAR-5 ovarian
[46] = system: HT29 colon
[47] = system: A549 NSCLC
[48] = system: SF-539 CNS
[49] = system: LOX IMVI melanoma
[50] = system: NCI-H23 lung
[51] = system: HS 578T breast
[52] = system: MALME-3M melanoma
[53] = system: MDA-MB-231 breast
[54] = system: SK-MEL-2 melanoma
[55] = system: CAKI-1 renal
[56] = system: SN12C renal

`N#CCCN1C/C(=C/c2ccccc2)C(=O)/C(=C/c2ccccc2)C1` showed a GI50 [1] of 1.9 µM, a TGI [1] of 3.56 µM and a GI50 [2] of 1.73 µM. For the same molecule, the TGI [2] was 3.44 µM, the GI50 [3] was 2.23 µM and the TGI [3] was 6.03 µM. The GI50 [4] was 13.4 µM, the TGI [4] was 26.8 µM and the GI50 [5] was 1.45 µM. It also gave a TGI [5] of 3.54 µM, a GI50 [6] of 0.295 µM and a TGI [6] of 1.16 µM. It also gave a GI50 [7] of 1.79 µM, a TGI [7] of 3.54 µM and a GI50 [8] of 1.92 µM. For the same molecule, the TGI [8] was 4.07 µM, the GI50 [9] was 7.43 µM and the TGI [9] was 21.3 µM. For the same molecule, the GI50 [10] was 1.65 µM, the TGI [10] was 3.07 µM and the GI50 [11] was 2.63 µM. The TGI [11] was 6.04 µM, the GI50 [12] was 3.19 µM and the TGI [12] was 13.6 µM. It also gave a GI50 [13] of 1.66 µM, a TGI [13] of 3.38 µM and a GI50 [14] of 1.74 µM. The TGI [14] was 3.2 µM, the GI50 [15] was 3.44 µM and the TGI [15] was 31.7 µM. It also gave a GI50 [16] of 2.95 µM, a TGI [16] of 17.9 µM and a GI50 [17] of 4.09 µM. The TGI [17] was 14.2 µM, the GI50 [18] was 2.59 µM and the TGI [18] was 6.42 µM. The GI50 [19] was 1.91 µM, the TGI [19] was 4.64 µM and the GI50 [20] was 2.13 µM. For the same molecule, the TGI [20] was 5.89 µM, the GI50 [21] was 5.86 µM and the TGI [21] was 18.1 µM. The GI50 [22] was 0.744 µM, the TGI [22] was > 100 µM and the GI50 [23] was 2.14 µM. The TGI [23] was 4.23 µM, the GI50 [24] was 0.647 µM and the TGI [24] was 2.47 µM. The GI50 [25] was 1.83 µM, the TGI [25] was 3.4 µM and the GI50 [26] was 0.395 µM. It also gave a TGI [26] of 2.35 µM, a GI50 [27] of 1.92 µM and a TGI [27] of 3.91 µM. It also gave a GI50 [28] of 2.94 µM, a TGI [28] of 8.88 µM and a GI50 [29] of 3.66 µM. It also gave a TGI [29] of 12.7 µM, a GI50 [30] of 2.97 µM and a TGI [30] of 21.2 µM. The GI50 [31] was 7.43 µM, the TGI [31] was 21.4 µM and the GI50 [32] was 0.397 µM. The TGI [32] was 1.88 µM, the GI50 [33] was 1.59 µM and the TGI [33] was 3.12 µM. For the same molecule, the GI50 [34] was 1.48 µM, the TGI [34] was 3.12 µM and the GI50 [35] was 2.01 µM. The TGI [35] was 6.08 µM, the GI50 [36] was 2.12 µM and the TGI [36] was 4.63 µM. For the same molecule, the GI50 [37] was 12.3 µM, the TGI [37] was 29.4 µM and the GI50 [38] was 18.1 µM. For the same molecule, the TGI [38] was 50.3 µM, the GI50 [39] was 0.289 µM and the TGI [39] was > 100 µM. For the same molecule, the GI50 [40] was 0.498 µM, the TGI [40] was > 100 µM and the GI50 [41] was 2.61 µM. It also gave a TGI [41] of 6.03 µM, a GI50 [42] of 2.6 µM and a TGI [42] of 7.9 µM. It also gave a GI50 [43] of 2.97 µM, a TGI [43] of 7.76 µM and a GI50 [44] of 3.1 µM. It also gave a TGI [44] of 13.1 µM, a GI50 [45] of 2.55 µM and a TGI [45] of 6.6 µM. For the same molecule, the GI50 [46] was 1.81 µM, the TGI [46] was 3.91 µM and the GI50 [47] was 3.8 µM. It also gave a TGI [47] of 16.2 µM, a GI50 [48] of 2.2 µM and a TGI [48] of 4.98 µM. For the same molecule, the GI50 [49] was 1.09 µM, the TGI [49] was 2.47 µM and the GI50 [50] was 3.46 µM. The TGI [50] was 12.6 µM, the GI50 [51] was 2.96 µM and the TGI [51] was 13.3 µM. It also gave a GI50 [52] of 2.91 µM, a TGI [52] of 6.69 µM and a GI50 [53] of 2.75 µM. It also gave a TGI [53] of 7.06 µM, a GI50 [54] of 2.62 µM and a TGI [54] of 5.87 µM. It also gave a GI50 [55] of 3.16 µM, a TGI [55] of 11.1 µM and a GI50 [56] of 2.15 µM. The TGI [56] was 4.79 µM.

Source: PubChem BioAssay (NCI)
